We go through 24 compounds from patent publication US10543212B2, “Substituted amines for treating cardiac diseases” (Cardurion Pharmaceuticals, LLC, priority 2017, dated 2020).

Some results are limits rather than exact numbers.

The first assay deals with T1, Full-length, GST-tagged, human CaMKIIδ (Homo sapiens, UniProt Q13557).
T1 construct: Full-Length, Glutathione-S-Transferase(GST)-Tagged, Human CaMKIIδ was purchased from Carna Biosciences; purchased Carna Biosciences 02-111
T1 sequence (Q13557 1-478 isoform Q13557-12): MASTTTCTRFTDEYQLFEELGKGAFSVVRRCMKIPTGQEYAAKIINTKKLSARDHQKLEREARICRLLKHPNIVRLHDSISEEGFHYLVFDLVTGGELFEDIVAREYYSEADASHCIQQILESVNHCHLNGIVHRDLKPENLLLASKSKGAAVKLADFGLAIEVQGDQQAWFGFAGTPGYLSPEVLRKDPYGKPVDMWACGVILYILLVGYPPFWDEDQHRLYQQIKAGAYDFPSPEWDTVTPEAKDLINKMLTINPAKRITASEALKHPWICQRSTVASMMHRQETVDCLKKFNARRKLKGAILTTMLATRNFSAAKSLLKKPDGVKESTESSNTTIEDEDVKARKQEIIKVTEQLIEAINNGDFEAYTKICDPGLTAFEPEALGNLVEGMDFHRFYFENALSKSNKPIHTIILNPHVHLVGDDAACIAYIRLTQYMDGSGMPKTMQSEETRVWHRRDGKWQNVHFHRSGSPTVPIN
Briefly: CaMKIIδ binding assay (TR-FRET with BODIPY-labeled probe ligand). The note with it: CaMKIIδ binding assay, results of Table 2. In a few lines: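 TR-FRET probe-displacement binding: 0.5 nM GST-CaMKIIδ with 10 μg/mL calmodulin, 1 mM CaCl2, 0.21 nM Tb-anti-GST Ab and 300 nM BODIPY probe in HEPES pH 7.6 buffer. Eight-point 4-fold dilutions, 1 hr at room temperature. IC50 from logistic fit; 100% inhibition defined by 3 μM parent compound.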
Compound `COc1cnc(C2CCC(F)(F)CC2)cc1Nc1ncc(-c2ccc(Cl)c(O[C@@H](C)Cn3cnnn3)c2)cn1` [Example 508, (S)-5-(3-((1-(1H-tetrazol-1-yl)propan-2-yl)oxy)-4-chlorophenyl)-N-(2-(4,4-difluorocyclohexyl)-5-methoxypyridin-4-yl)pyrimidin-2-amine] registered an IC50 of at least 100 nM.

Compound `C[C@@H](Cn1cnnn1)Oc1cc(-c2cnc(Nc3ccc4c(c3)CCN4C(=O)OC(C)(C)C)nc2)ccc1Cl` [Example 450, tert-butyl (S)-5-((5-(3-((1-(1H-tetrazol-1-yl)propan-2-yl)oxy)-4-chlorophenyl)pyrimidin-2-yl)amino)indoline-1-carboxylate] had an IC50 of at least 100 nM.

Compound `C[C@@H](Cn1cnnn1)Oc1cc(-c2cnc(Nc3cc(C4CCN(C5COC5)CC4)ccc3OC(F)(F)F)nc2)ccc1Cl` [Example 577, (S)-5-(3-((1-(1H-tetrazol-1-yl)propan-2-yl)oxy)-4-chlorophenyl)-N-(5-(1-(oxetan-3-yl)piperidin-4-yl)-2-(trifluoromethoxy)phenyl)pyrimidin-2-amine] had an IC50 of 10 to 100 nM.

`COc1cc2c(cc1Nc1ncc(-c3ccc(Cl)c(O[C@@H](C)Cn4cnnn4)c3)cn1)CN(C(=O)C(C)(C)OC(C)=O)CC2` [Example 520, (S)-1-(7-((5-(3-((1-(1H-tetrazol-1-yl)propan-2-yl)oxy)-4-chlorophenyl)pyrimidin-2-yl)amino)-6-methoxy-3,4-dihydroisoquinolin-2(1H)-yl)-2-methyl-1-oxopropan-2-yl acetate] returned an IC50 of at least 100 nM.

The compound `CCN(C)CC(=O)N1CCc2cc(Nc3ncc(-c4ccc(Cl)c(O[C@@H](C)Cn5cnnn5)c4)cn3)c(OC)cc2C1` [Example 514, (S)-1-(6-((5-(3-((1-(1H-tetrazol-1-yl)propan-2-yl)oxy)-4-chlorophenyl)pyrimidin-2-yl)amino)-7-methoxy-3,4-dihydroisoquinolin-2(1H)-yl)-2-(ethyl(methyl)amino)ethan-1-one] gave an IC50 below 10 nM.

Staying with this assay, now noted: CaMKIIδ binding assay; activity class per Table 2.
Compound `C[C@@H](Cn1cnnn1)Oc1cc(-c2cnc(Nc3cn(CC(O)CN4CCOCC4)nc3OCC(F)(F)F)nc2)ccc1Cl` (stereo partly drawn) [Example 913, 1-(4-((5-(3-(((S)-1-(1H-tetrazol-1-yl)propan-2-yl)oxy)-4-chlorophenyl)pyrimidin-2-yl)amino)-3-(2,2,2-trifluoroethoxy)-1H-pyrazol-1-yl)-3-morpholinopropan-2-ol] came in with an IC50 below 10 nM.

`CC(=O)OC(C)(C)CN1CC2(CC(n3cc(Nc4ncc(-c5ccc(Cl)c(O[C@@H](C)Cn6cnnn6)c5)cn4)c(C(C)C)n3)C2)C1` [Example 975, (S)-1-(6-(4-((5-(3-((1-(1H-tetrazol-1-yl)propan-2-yl)oxy)-4-chlorophenyl)pyrimidin-2-yl)amino)-3-isopropyl-1H-pyrazol-1-yl)-2-azaspiro[3.3]heptan-2-yl)-2-methylpropan-2-yl acetate] gave an IC50 below 10 nM.

In the case of `C[C@@H](Cn1cnnn1)Oc1cc(-c2cnc(Nc3cn(C(C)(C)C(=O)N4CCOCC4)nc3OCC(F)(F)F)nc2)ccc1Cl` [Example 895, (S)-2-(4-((5-(3-((1-(1H-tetrazol-1-yl)propan-2-yl)oxy)-4-chlorophenyl)pyrimidin-2-yl)amino)-3-(2,2,2-trifluoroethoxy)-1H-pyrazol-1-yl)-2-methyl-1-morpholinopropan-1-one], the IC50 is 10 to 100 nM.

The assay is the same for the next values; noted with them: Table 2; CaMKIIδ binding assay, activity given as class A/B/C.
As to `CCn1ncc(Nc2ncc(-c3ccc(Cl)c(O[C@@H](C)Cn4cnnn4)c3)cn2)c1C(=O)O` [Example 875, (S)-4-((5-(3-((1-(1H-tetrazol-1-yl)propan-2-yl)oxy)-4-chlorophenyl)pyrimidin-2-yl)amino)-1-ethyl-1H-pyrazole-5-carboxylic acid], the IC50 was in the range of 10 to 100 nM.

`C[C@@H](Cn1cnnn1)Oc1cc(-c2cnc(Nc3cn([C@@H]4C[C@H]5CC[C@@H](C4)N5C4CC4)nc3C(F)(F)F)nc2)ccc1Cl` [Example 757, 5-(3-(((S)-1-(1H-tetrazol-1-yl)propan-2-yl)oxy)-4-chlorophenyl)-N-(1-((1R,3s,5S)-8-cyclopropyl-8-azabicyclo[3.2.1]octan-3-yl)-3-(trifluoromethyl)-1H-pyrazol-4-yl)pyrimidin-2-amine] had an IC50 below 10 nM.

In turn, `COCC(C)n1cc(Nc2ncc(-c3ccc(Cl)c(O[C@@H](C)Cn4cnnn4)c3)cn2)c(OCC(F)(F)F)n1` (stereo partly drawn) [Example 776, 5-(3-(((S)-1-(1H-tetrazol-1-yl)propan-2-yl)oxy)-4-chlorophenyl)-N-(1-(1-methoxypropan-2-yl)-3-(2,2,2-trifluoroethoxy)-1H-pyrazol-4-yl)pyrimidin-2-amine] registered an IC50 below 10 nM.

`C[C@@H](Cn1cnnn1)Oc1cc(-c2cnc(Nc3cn(-c4cccc(=O)[nH]4)nc3OCC(F)(F)F)nc2)ccc1Cl` [Example 879, (S)-6-(4-((5-(3-((1-(1H-tetrazol-1-yl)propan-2-yl)oxy)-4-chlorophenyl)pyrimidin-2-yl)amino)-3-(2,2,2-trifluoroethoxy)-1H-pyrazol-1-yl)pyridin-2(1H)-one] registered an IC50 of 10 to 100 nM.

In turn, `C[C@@H](Cn1cnnn1)Oc1cc(-c2cnc(Nc3cn(-c4ccc(=O)[nH]c4)nc3C(F)(F)F)nc2)ccc1Cl` [Example 868, (S)-5-(4-((5-(3-((1-(1H-tetrazol-1-yl)propan-2-yl)oxy)-4-chlorophenyl)pyrimidin-2-yl)amino)-3-(trifluoromethyl)-1H-pyrazol-1-yl)pyridin-2(1H)-one] showed an IC50 of 10 to 100 nM.

Consider `C[C@@H](Cn1cnnn1)Oc1cc(-c2cnc(Nc3cn(C4CCNCC4)nc3OCCF)nc2)ccc1Cl` [Example 824, (S)-5-(3-((1-(1H-tetrazol-1-yl)propan-2-yl)oxy)-4-chlorophenyl)-N-(3-(2-fluoroethoxy)-1-(piperidin-4-yl)-1H-pyrazol-4-yl)pyrimidin-2-amine], for which the IC50 is below 10 nM.

In the case of `C[C@@H](CO)Cn1cc(Nc2ncc(-c3ccc(Cl)c(O[C@@H](C)Cn4cnnn4)c3)cn2)c(OCC(F)(F)F)n1` [Example 784, (R)-3-(4-((5-(3-(((S)-1-(1H-tetrazol-1-yl)propan-2-yl)oxy)-4-chlorophenyl)pyrimidin-2-yl)amino)-3-(2,2,2-trifluoroethoxy)-1H-pyrazol-1-yl)-2-methylpropan-1-ol], the IC50 was below 10 nM.

Compound `C[C@@H](Cn1cnnn1)Oc1cc(-c2cnc(Nc3sc4c(c3C#N)CCC4)nc2)ccc1Cl` [Example 753, (S)-2-((5-(3-((1-(1H-tetrazol-1-yl)propan-2-yl)oxy)-4-chlorophenyl)pyrimidin-2-yl)amino)-5,6-dihydro-4H-cyclopenta[b]thiophene-3-carbonitrile] yielded an IC50 of at least 100 nM.

`C[C@@H](Cn1cnnn1)Oc1cc(-c2cnc(Nc3cn(CC(C)(C)O)nc3C(F)(F)F)nc2)ccc1Cl` [Example 847, (S)-1-(4-((5-(3-((1-(1H-tetrazol-1-yl)propan-2-yl)oxy)-4-chlorophenyl)pyrimidin-2-yl)amino)-3-(trifluoromethyl)-1H-pyrazol-1-yl)-2-methylpropan-2-ol] had an IC50 below 10 nM.

`CCOC(=O)c1nn(CC)cc1Nc1ncc(-c2ccc(Cl)c(O[C@@H](C)Cn3cnnn3)c2)cn1` [Example 873, ethyl (S)-4-((5-(3-((1-(1H-tetrazol-1-yl)propan-2-yl)oxy)-4-chlorophenyl)pyrimidin-2-yl)amino)-1-ethyl-1H-pyrazole-3-carboxylate] had an IC50 below 10 nM.

In the case of `C[C@@H](Cn1cnnn1)Oc1cc(-c2cnc(Nc3ccnn3C)nc2)ccc1Cl` [Example 735, (S)-5-(3-((1-(1H-tetrazol-1-yl)propan-2-yl)oxy)-4-chlorophenyl)-N-(1-methyl-1H-pyrazol-5-yl)pyrimidin-2-amine], the IC50 fell in the range of 10 to 100 nM.

Still in this assay, the particulars now being: Table 2; activity class for CaMKIIδ.
For the compound `C[C@@H](Cn1cnnn1)Oc1cc(-c2cnc(Nc3cn(C4CNC4)nc3C(F)(F)F)nc2)ccc1Cl` [Example 697, (S)-5-(3-((1-(1H-tetrazol-1-yl)propan-2-yl)oxy)-4-chlorophenyl)-N-(1-(azetidin-3-yl)-3-(trifluoromethyl)-1H-pyrazol-4-yl)pyrimidin-2-amine], the IC50 is below 10 nM.

In turn, `C[C@@H](Cn1cnnn1)Oc1cc(-c2cnc(Nc3cn(Cc4n[nH]c(=O)[nH]4)nc3C(F)(F)F)nc2)ccc1Cl` [Example 722, (S)-5-((4-((5-(3-((1-(1H-tetrazol-1-yl)propan-2-yl)oxy)-4-chlorophenyl)pyrimidin-2-yl)amino)-3-(trifluoromethyl)-1H-pyrazol-1-yl)methyl)-2,4-dihydro-3H-1,2,4-triazol-3-one] registered an IC50 of at least 100 nM.

`C[C@@H](Cn1cnnn1)Oc1cc(-c2cnc(Nc3cn(C4CCC(C(=O)O)CC4)nc3C(F)(F)F)nc2)ccc1Cl` (stereo partly drawn) [Example 604, (S)-4-(4-((5-(3-((1-(1H-tetrazol-1-yl)propan-2-yl)oxy)-4-chlorophenyl)pyrimidin-2-yl)amino)-3-(trifluoromethyl)-1H-pyrazol-1-yl)cyclohexane-1-carboxylic acid] yielded an IC50 of 10 to 100 nM.

The compound `COc1ccc(C(=O)N2CCCNCC2)cc1Nc1ncc(-c2ccc(Cl)c(O[C@@H](C)Cn3cnnn3)c2)cn1` [Example 593, (S)-(3-((5-(3-((1-(1H-tetrazol-1-yl)propan-2-yl)oxy)-4-chlorophenyl)pyrimidin-2-yl)amino)-4-methoxyphenyl) (1,4-diazepan-1-yl)methanone] gave an IC50 below 10 nM.

The compound `C[C@@H](Cn1cnnn1)Oc1cc(-c2cnc(Nc3cn(CCCO)nc3C(F)(F)F)nc2)ccc1Cl` [Example 718, (S)-3-(4-((5-(3-((1-(1H-tetrazol-1-yl)propan-2-yl)oxy)-4-chlorophenyl)pyrimidin-2-yl)amino)-3-(trifluoromethyl)-1H-pyrazol-1-yl)propan-1-ol] showed an IC50 of 10 to 100 nM.

For orientation: IC50 means the point on the concentration scale where inhibition reaches its midpoint.
